# Data from patent US9408871B2, “Methods for inhibiting complement activation and uses thereof” (THE UNIVERSITY OF BRITISH COLUMBIA, priority 2013, dated 2016).
# Test system: TP complement components (C5b,6, C7, C8, C9)
# Assay: terminal pathway hemolytic assay using purified complement components
# Type: cell-based, human
# Conditions: cRBC, purified C5b,6, C7, C8, C9
# Experimental: For serum-based terminal pathway (TP) hemolytic assays, components were diluted in GVB containing 10 mM EDTA (GVB-E), the latter added to prevent upstream complement activation and generation of endogenous C5b,6. 2% NHS was used as the source of C7, C8, and C9, and hemolysis of chicken erythrocytes (cRBC) (3.3×10^8 cells/mL) was initiated by addition of exogenous purified C5b,6, the concentration of which was determined from pilot studies to yield ˜70-80% lysis at 30 min. No C5b,6 activity was detected in the NHS prior to initiating the reaction. For some experiments, instead of NHS, purified terminal pathway complement components were used in the TP assays. In these assays, in a final volume of 300 uL GVB, lysis was achieved by the sequential addition of the following components: cRBC (3.3×10^8 cells/mL), C5b,6 (20 μM), C7 (15 nM), C8 (10 nM), and C9 (25 nM). The unlysed cell pellet was removed by centrifugation and lysis was measured immediately after the 30-minute reaction. […]
# A standard curve for the terminal pathway assay using purified complement components (FIG. 3) was generated using C7 (15 nM), C8 (10 nM), and C9 (25 nM) in excess, and hemolysis of chicken erythrocytes after 30 min at 37° C. was determined as dependent on the concentration of purified C5b,6. […]
compound,measurement,value
"O=P(O)(O)O [P1, Orthophosphate]","effect on erythrocyte lysis, purified TP components",had no effect
